Reference: US10870638B2, “Pyridazinone compound or its salt, and herbicide containing it” (ISHIHARA SANGYO KAISHA, LTD., priority 2016, dated 2020)

Tests used:
Type in all cases: in vivo
Conditions in all cases: active ingredient amount 31 g/ha, 14th day after application
[1] = tested on: barnyardgrass (Echinochloa crus-qalli L.); experiment: Test Example 1: foliar treatment, growth inhibition rate on 14th day
Summary of the method: (§1)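 Visual 0–100% inhibition scoring (100 = complete kill) at 14 days after foliar treatment of soil-grown seedlings at species-specific leaf stages, with the compound sprayed as a wettable powder or emulsifiable concentrate dilution.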

corn (Zea mays L.) [2] = experiment: as above
Summary of the method: as §1

[3] = tested on: crabgrass (Digitaria sanquinalis L.); experiment: as above
Summary of the method: as §1

[4] = tested on: green foxtail (Setaria viridis L.); experiment: as above
Summary of the method: as §1

[5] = tested on: italian ryegrass (Lolium multiflorum Lam.); experiment: as above
Summary of the method: as §1

[6] = tested on: redroot pigweed (Amaranthus retroflexus L.); experiment: as above
Summary of the method: as §1

rice (Oryza sativa L.) [7] = experiment: as above
Summary of the method: as §1

[8] = tested on: soybean (Glycine max Merr.); experiment: as above
Summary of the method: as §1

[9] = tested on: wheat (Triticum aestivum L.); experiment: as above
Summary of the method: as §1

[10] = tested on: wild oat (Avena fatua L.); experiment: as above
Summary of the method: as §1

[11] = tested on: barnyardgrass (Echinochloa crus-qalli L.); experiment: Test Example 2: soil application on the day after sowing, growth inhibition rate on 14th day
Summary of the method: (§2)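 Upland soil pots; sowing, then next-day soil spraying of compound formulations (1,000 L/ha water) at defined a.i. doses. Day-14 visual rating of inhibition on a 0–100 scale, where 100 means complete kill.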

corn (Zea mays L.) [12] = experiment: as above
Summary of the method: as §2

[13] = tested on: crabgrass (Digitaris sanquinalis L.); experiment: as above
Summary of the method: as §2

[14] = tested on: green foxtail (Setaria viridis L.); experiment: as above
Summary of the method: as §2

[15] = tested on: prickly sida (Sida spinosa L.); experiment: as above
Summary of the method: as §2

[16] = tested on: redroot pigweed (Amaranthus retroflexus L.); experiment: as above
Summary of the method: as §2

rice (Oryza sativa L.) [17] = experiment: as above
Summary of the method: as §2

[18] = tested on: soybean (Glycine max Merr.); experiment: as above
Summary of the method: as §2

[19] = tested on: velvetleaf (Abutilon theophrasti MEDIC.); experiment: as above
Summary of the method: as §2

[20] = tested on: wheat (Triticum aestivum L.); experiment: as above
Summary of the method: as §2

Structure (SMILES): CCc1ccc(Oc2nc3ccccc3o2)cc1-c1c(O)c(C)nn(C)c1=O [Compound 2-166]
- Growth inhibition rate (%) Barnyardgrass [1]: 100%
- Growth inhibition rate (%) Corn (corn (Zea mays L.) [2]): 80%
- Growth inhibition rate (%) Crabgrass [3]: 88%
- Growth inhibition rate (%) Green foxtail [4]: 100%
- Growth inhibition rate (%) Italian ryegrass [5]: 99%
- Growth inhibition rate (%) Redroot pigweed [6]: 20%
- Growth inhibition rate (%) Rice (rice (Oryza sativa L.) [7]): 88%
- Growth inhibition rate (%) Soybean [8]: 30%
- Growth inhibition rate (%) Wheat [9]: 10%
- Growth inhibition rate (%) Wild oat [10]: 40%
- Growth inhibition rate (%) Barnyardgrass [11]: 99%
- Growth inhibition rate (%) Corn (corn (Zea mays L.) [12]): 0%
- Growth inhibition rate (%) Crabgrass [13]: 95%
- Growth inhibition rate (%) Green foxtail [14]: 100%
- Growth inhibition rate (%) Prickly sida [15]: 0%
- Growth inhibition rate (%) Redroot pigweed [16]: 0%
- Growth inhibition rate (%) Rice (rice (Oryza sativa L.) [17]): 70%
- Growth inhibition rate (%) Soybean [18]: 0%
- Growth inhibition rate (%) Velvetleaf [19]: 0%
- Growth inhibition rate (%) Wheat [20]: 0%

Structure (SMILES): CCn1ncc(OC(C)=O)c(-c2cc(Oc3nc4ccc(Cl)cc4o3)ccc2C)c1=O [Compound 2-169]
- Growth inhibition rate (%) Barnyardgrass [1]: 100%
- Growth inhibition rate (%) Corn (corn (Zea mays L.) [2]): 98%
- Growth inhibition rate (%) Crabgrass [3]: 100%
- Growth inhibition rate (%) Green foxtail [4]: 100%
- Growth inhibition rate (%) Italian ryegrass [5]: 85%
- Growth inhibition rate (%) Redroot pigweed [6]: 0%
- Growth inhibition rate (%) Rice (rice (Oryza sativa L.) [7]): 83%
- Growth inhibition rate (%) Soybean [8]: 40%
- Growth inhibition rate (%) Wheat [9]: 85%
- Growth inhibition rate (%) Wild oat [10]: 88%
- Growth inhibition rate (%) Barnyardgrass [11]: 70%
- Growth inhibition rate (%) Corn (corn (Zea mays L.) [12]): 0%
- Growth inhibition rate (%) Crabgrass [13]: 98%
- Growth inhibition rate (%) Green foxtail [14]: 98%
- Growth inhibition rate (%) Prickly sida [15]: 0%
- Growth inhibition rate (%) Redroot pigweed [16]: 0%
- Growth inhibition rate (%) Rice (rice (Oryza sativa L.) [17]): 0%
- Growth inhibition rate (%) Soybean [18]: 0%
- Growth inhibition rate (%) Velvetleaf [19]: 0%
- Growth inhibition rate (%) Wheat [20]: 0%

Structure (SMILES): Cc1ccc(Oc2nc3ccc(Cl)cc3o2)cc1-c1c(O)cnn(C(C)C)c1=O [Compound 2-171]
- Growth inhibition rate (%) Barnyardgrass [1]: 99%
- Growth inhibition rate (%) Corn (corn (Zea mays L.) [2]): 80%
- Growth inhibition rate (%) Crabgrass [3]: 90%
- Growth inhibition rate (%) Green foxtail [4]: 93%
- Growth inhibition rate (%) Italian ryegrass [5]: 30%
- Growth inhibition rate (%) Redroot pigweed [6]: 0%
- Growth inhibition rate (%) Rice (rice (Oryza sativa L.) [7]): 25%
- Growth inhibition rate (%) Soybean [8]: 30%
- Growth inhibition rate (%) Wheat [9]: 0%
- Growth inhibition rate (%) Wild oat [10]: 0%
- Growth inhibition rate (%) Barnyardgrass [11]: 65%
- Growth inhibition rate (%) Corn (corn (Zea mays L.) [12]): 0%
- Growth inhibition rate (%) Crabgrass [13]: 30%
- Growth inhibition rate (%) Green foxtail [14]: 75%
- Growth inhibition rate (%) Prickly sida [15]: 0%
- Growth inhibition rate (%) Redroot pigweed [16]: 0%
- Growth inhibition rate (%) Rice (rice (Oryza sativa L.) [17]): 0%
- Growth inhibition rate (%) Soybean [18]: 0%
- Growth inhibition rate (%) Velvetleaf [19]: 0%
- Growth inhibition rate (%) Wheat [20]: 0%

Structure (SMILES): CC(=O)Oc1cnn(C(C)C)c(=O)c1-c1cc(Oc2nc3ccc(Cl)cc3o2)ccc1C [Compound 2-172]
- Growth inhibition rate (%) Barnyardgrass [1]: 100%
- Growth inhibition rate (%) Corn (corn (Zea mays L.) [2]): 98%
- Growth inhibition rate (%) Crabgrass [3]: 98%
- Growth inhibition rate (%) Green foxtail [4]: 99%
- Growth inhibition rate (%) Italian ryegrass [5]: 35%
- Growth inhibition rate (%) Redroot pigweed [6]: 0%
- Growth inhibition rate (%) Rice (rice (Oryza sativa L.) [7]): 30%
- Growth inhibition rate (%) Soybean [8]: 40%
- Growth inhibition rate (%) Wheat [9]: 10%
- Growth inhibition rate (%) Wild oat [10]: 40%
- Growth inhibition rate (%) Barnyardgrass [11]: 60%
- Growth inhibition rate (%) Corn (corn (Zea mays L.) [12]): 0%
- Growth inhibition rate (%) Crabgrass [13]: 30%
- Growth inhibition rate (%) Green foxtail [14]: 20%
- Growth inhibition rate (%) Prickly sida [15]: 0%
- Growth inhibition rate (%) Redroot pigweed [16]: 0%
- Growth inhibition rate (%) Rice (rice (Oryza sativa L.) [17]): 0%
- Growth inhibition rate (%) Soybean [18]: 0%
- Growth inhibition rate (%) Velvetleaf [19]: 0%
- Growth inhibition rate (%) Wheat [20]: 0%

Structure (SMILES): Cc1ccc(Oc2nc3cc(Cl)ccc3o2)cc1-c1c(O)cnn(C)c1=O [Compound 2-173]
- Growth inhibition rate (%) Barnyardgrass [1]: 99%
- Growth inhibition rate (%) Corn (corn (Zea mays L.) [2]): 65%
- Growth inhibition rate (%) Crabgrass [3]: 95%
- Growth inhibition rate (%) Green foxtail [4]: 88%
- Growth inhibition rate (%) Italian ryegrass [5]: 90%
- Growth inhibition rate (%) Redroot pigweed [6]: 0%
- Growth inhibition rate (%) Rice (rice (Oryza sativa L.) [7]): 85%
- Growth inhibition rate (%) Soybean [8]: 0%
- Growth inhibition rate (%) Wheat [9]: 75%
- Growth inhibition rate (%) Wild oat [10]: 35%
- Growth inhibition rate (%) Barnyardgrass [11]: 65%
- Growth inhibition rate (%) Corn (corn (Zea mays L.) [12]): 10%
- Growth inhibition rate (%) Crabgrass [13]: 80%
- Growth inhibition rate (%) Green foxtail [14]: 10%
- Growth inhibition rate (%) Prickly sida [15]: 0%
- Growth inhibition rate (%) Redroot pigweed [16]: 0%
- Growth inhibition rate (%) Rice (rice (Oryza sativa L.) [17]): 20%
- Growth inhibition rate (%) Soybean [18]: 0%
- Growth inhibition rate (%) Velvetleaf [19]: 0%
- Growth inhibition rate (%) Wheat [20]: 0%

Structure (SMILES): Cc1nn(C)c(=O)c(-c2cc(Oc3nc4ccc(Cl)cc4o3)ccc2OC(F)(F)F)c1O [Compound 2-175]
- Growth inhibition rate (%) Barnyardgrass [1]: 98%
- Growth inhibition rate (%) Corn (corn (Zea mays L.) [2]): 95%
- Growth inhibition rate (%) Crabgrass [3]: 98%
- Growth inhibition rate (%) Green foxtail [4]: 99%
- Growth inhibition rate (%) Italian ryegrass [5]: 50%
- Growth inhibition rate (%) Redroot pigweed [6]: 0%
- Growth inhibition rate (%) Rice (rice (Oryza sativa L.) [7]): 0%
- Growth inhibition rate (%) Soybean [8]: 10%
- Growth inhibition rate (%) Wheat [9]: 0%
- Growth inhibition rate (%) Wild oat [10]: 10%
- Growth inhibition rate (%) Barnyardgrass [11]: 100%
- Growth inhibition rate (%) Corn (corn (Zea mays L.) [12]): 30%
- Growth inhibition rate (%) Crabgrass [13]: 95%
- Growth inhibition rate (%) Green foxtail [14]: 99%
- Growth inhibition rate (%) Prickly sida [15]: 0%
- Growth inhibition rate (%) Redroot pigweed [16]: 0%
- Growth inhibition rate (%) Rice (rice (Oryza sativa L.) [17]): 90%
- Growth inhibition rate (%) Soybean [18]: 0%
- Growth inhibition rate (%) Velvetleaf [19]: 0%
- Growth inhibition rate (%) Wheat [20]: 0%

Structure (SMILES): CCn1nc(C)c(O)c(-c2cc(Oc3nc4ccc(Cl)cc4o3)ccc2C)c1=O [Compound 2-176]
- Growth inhibition rate (%) Barnyardgrass [1]: 100%
- Growth inhibition rate (%) Corn (corn (Zea mays L.) [2]): 80%
- Growth inhibition rate (%) Crabgrass [3]: 99%
- Growth inhibition rate (%) Green foxtail [4]: 100%
- Growth inhibition rate (%) Italian ryegrass [5]: 85%
- Growth inhibition rate (%) Redroot pigweed [6]: 0%
- Growth inhibition rate (%) Rice (rice (Oryza sativa L.) [7]): 10%
- Growth inhibition rate (%) Soybean [8]: 0%
- Growth inhibition rate (%) Wheat [9]: 0%
- Growth inhibition rate (%) Wild oat [10]: 25%
- Growth inhibition rate (%) Barnyardgrass [11]: 100%
- Growth inhibition rate (%) Corn (corn (Zea mays L.) [12]): 0%
- Growth inhibition rate (%) Crabgrass [13]: 98%
- Growth inhibition rate (%) Green foxtail [14]: 99%
- Growth inhibition rate (%) Prickly sida [15]: 0%
- Growth inhibition rate (%) Redroot pigweed [16]: 0%
- Growth inhibition rate (%) Rice (rice (Oryza sativa L.) [17]): 60%
- Growth inhibition rate (%) Soybean [18]: 0%
- Growth inhibition rate (%) Velvetleaf [19]: 0%
- Growth inhibition rate (%) Wheat [20]: 0%

Structure (SMILES): CCn1nc(C)c(OC(C)=O)c(-c2cc(Oc3nc4ccc(Cl)cc4o3)ccc2C)c1=O [Compound 2-177]
- Growth inhibition rate (%) Barnyardgrass [1]: 100%
- Growth inhibition rate (%) Corn (corn (Zea mays L.) [2]): 83%
- Growth inhibition rate (%) Crabgrass [3]: 100%
- Growth inhibition rate (%) Green foxtail [4]: 99%
- Growth inhibition rate (%) Italian ryegrass [5]: 98%
- Growth inhibition rate (%) Redroot pigweed [6]: 0%
- Growth inhibition rate (%) Rice (rice (Oryza sativa L.) [7]): 65%
- Growth inhibition rate (%) Soybean [8]: 30%
- Growth inhibition rate (%) Wheat [9]: 90%
- Growth inhibition rate (%) Wild oat [10]: 98%
- Growth inhibition rate (%) Barnyardgrass [11]: 90%
- Growth inhibition rate (%) Corn (corn (Zea mays L.) [12]): 0%
- Growth inhibition rate (%) Crabgrass [13]: 98%
- Growth inhibition rate (%) Green foxtail [14]: 90%
- Growth inhibition rate (%) Prickly sida [15]: 0%
- Growth inhibition rate (%) Redroot pigweed [16]: 0%
- Growth inhibition rate (%) Rice (rice (Oryza sativa L.) [17]): 30%
- Growth inhibition rate (%) Soybean [18]: 0%
- Growth inhibition rate (%) Velvetleaf [19]: 0%
- Growth inhibition rate (%) Wheat [20]: 0%

Structure (SMILES): Cc1ccc(Oc2nc3ccc(Br)cc3o2)cc1-c1c(O)cnn(C)c1=O [Compound 2-181]
- Growth inhibition rate (%) Barnyardgrass [1]: 100%
- Growth inhibition rate (%) Corn (corn (Zea mays L.) [2]): 70%
- Growth inhibition rate (%) Crabgrass [3]: 99%
- Growth inhibition rate (%) Green foxtail [4]: 100%
- Growth inhibition rate (%) Italian ryegrass [5]: 93%
- Growth inhibition rate (%) Redroot pigweed [6]: 0%
- Growth inhibition rate (%) Rice (rice (Oryza sativa L.) [7]): 10%
- Growth inhibition rate (%) Soybean [8]: 0%
- Growth inhibition rate (%) Wheat [9]: 35%
- Growth inhibition rate (%) Wild oat [10]: 83%
- Growth inhibition rate (%) Barnyardgrass [11]: 90%
- Growth inhibition rate (%) Corn (corn (Zea mays L.) [12]): 0%
- Growth inhibition rate (%) Crabgrass [13]: 0%
- Growth inhibition rate (%) Green foxtail [14]: 40%
- Growth inhibition rate (%) Prickly sida [15]: 0%
- Growth inhibition rate (%) Redroot pigweed [16]: 0%
- Growth inhibition rate (%) Rice (rice (Oryza sativa L.) [17]): 20%
- Growth inhibition rate (%) Soybean [18]: 0%
- Growth inhibition rate (%) Velvetleaf [19]: 0%
- Growth inhibition rate (%) Wheat [20]: 0%
